Laboratory results published in patent publication US11801235B2, “Methods and compositions for delivery of biotin to mitochondria” (priority 2020, dated 2023).
Square brackets hold non-standard residues; d marks the D form. Peptide text beside a SMILES is read from it. * marks the point of attachment. Biotin = O=C1N[C@H]2[C@H](CS[C@H]2CCCCC(=O)*)N1

Assays:
mouse retina = settings: 30 mg/kg ip
Procedure: SPN15 (30 mg/kg) was administered ip to a 13-month-old male mouse (C57BL/6J strain). At 2-hours after administration, the mouse was anesthetized with an overdose of ketamine/xylazine, and the eyes enucleated. After the cornea and lens were removed, the eyecup was fixed for 1.25 hours in 4% paraformaldehyde in 0.1M Tris buffer. The eyecup was then rinsed 3 times for 10 minutes each in Tris buffer and then cryoprotected in 10%, 20%, and 30% sucrose before sectioning at 30 um with a Leica 3050 cryostat. Sections were stored at −20° C. until used.
To label biotin on SPN15, sections were incubated with Streptavidin conjugated AlexaFluor 594 (1:500) from Jackson ImmunoResearch, West Grove, PA). ToPro 3 (nuclear stain, 1:1000, Molecular Probes) was used to stain cell nuclei. Mitochondria localization was determined using an antibody to Cox IV (cytochrome c oxidase subunit 4; PA529992, 1:300, Invitrogen) and Mitotracker Red (1:1500 in Tris, Invitrogen). All incubations were carried out in microwave (150W) except for Cox IV and Mitotracker labeling, which was done with primary antibody overnight at 4° C. followed by secondary antibody (AF488 conjugated donkey anti-rabbit, Jackson Immunoresearch). Sections were imaged using the Olympus Fluoview 300 with helium, argon and neon lasers using 40× oil immersion lens at a resolution of 1024×1024.

HK-2 cells = assay: In vitro scratch assay (scratch area); type: cell-based, human; settings: 10 nM, serum-free, 24 hours
Procedure: (§1) Certain exemplary peptide-conjugated biotin molecules can accelerate wound healing in cell cultures. The in vitro scratch assay is an easy and well-developed method to measure cell proliferation and migration over a “wound area” in vitro. This assay involves creating a “scratch” in a cell monolayer with a pipette tip and then examining the rate at which cells proliferate and migrate to close the scratch.
3×10^5 cells were plated per well in 6-well plates in DMEM at 37° C. in a humidified incubator with 5% CO2 for one day prior to the experiment. To mimic the microenvironment of wounds in vitro, serum-free medium was used in the scratch assay. On the day of the scratch assay, the medium was replaced with serum-free DMEM, and a line scraped across the cell monolayer using a p1000 pipette tip. Cells were washed to remove cell debris and replaced with DMEM alone (control), or DMEM containing 10 nM biotin or peptide-conjugated biotin molecules.
(§2) The scratch area was examined immediately (day 0) using a Nikon Eclipse Ti2 fluorescence microscope. Six different field were captured for each sample using 4×objective. The scratch area (cell-free zone) was calculated using ImageJ software, an open-source Java image processing program inspired by NIH Image (National Institute of Health). The scratch area was re-examined after 24 hours (day 1), and the area was normalized to the area determined on day 0 for the same sample. All results were calculated as change from no-treatment control and averaged for the six fields.

[1] = system: ARPE-19 human retinal pigment epithelial cells; assay: Biotin uptake by streptavidin-Alexa Fluor 594 fluorescence in ARPE-19 cells; settings: 1 uM, 1-hour incubation, serum-free
Procedure: Cellular uptake and localization of peptide-conjugated biotin molecules were determined in HK-2 human renal epithelial cells and ARPE-19 human retinal pigment epithelial cells (ATCC, Manassas, VA). HK-2 cells were cultured in Dulbecco's Modified Eagle's Medium (DMEM) containing 1 g/L glucose and 10% fetal bovine serum (FBS), 100 units/ml penicillin and 100 ug/ml streptomycin. ARPE-19 cells were cultured in DMEM/F12 medium containing 1 g/L glucose and 10% fetal bovine serum (FBS), 100 units/ml penicillin and 100 ug/ml streptomycin. Cells were incubated in humidified incubator with 5% CO2 at 37° C. HK-2 cells and ARPE-19 cells were seeded in 35 mm dish at an initial density of 5×10^4 cells. FBS was removed from the culture medium for 3 days to deplete endogenous biotin in the cells. […]
Biotin uptake was determined using Streptavidin binding. […] By using Alexa Fluor 594-conjugated streptavidin, it is possible to visualize biotin uptake using fluorescence microscopy. […] Live cell image buffer was added and Alexa-594 fluorescence (Ex/Em=591/614 nm) and Hoechst fluorescence ([…]) was observed using the Nikon Eclipse Ti2 fluorescence microscope (100×oil objective). Ten random fields from each sample were quantified by NIS-Elements Imaging Software (Nikon) for streptavidin fluorescence and normalized to Hoechst fluorescence to account for number of cells per field.

[2] = system: Human retinal pigment epithelial cells (ARPE-19); assay: Mitochondrial potential (TMRM/MitoView Green) after serum starvation; type: cell-based; settings: ARPE-19 cells, 3 days of serum starvation, then 1 uM for 2 hours
Procedure: ARPE-19 cells were seeded in 35 mm glass plates at an initial density of 5×10^4 cells. […] Cells were then incubated in serum-free DMEM/F12 alone (control group) or DMEM/F12 containing 1 uM of SPN12 or SPN15 for 2 hours.
To determine mitochondrial potential, live cells were incubated with 5 nM tetramethylrhodamine methyl ester (TMRM, #70017, Biotium, Fremont, CA) in DMEM without phenol red. TMRM is a potential-dependent fluorescent dye (Ex/Em=548/573). TMRM accumulates in negatively charged polarized mitochondria and can be detected as red fluorescence. Total mitochondria were imaged with a mitochondrial potential-independent fluorescent dye (100 nM MitoView Green; Ex/Em=490/523; #70054, Biotium, Fremont CA). Hoechst 33342 (10 ug/ml, Novus Biologicals, Centennial, CO) was added to stain nuclei. Live cells were covered with phosphate buffer and imaged using the Nikon Eclipse Ti fluorescent microscopy using the 60×water objective.

ARPE-19 cells [3] = assay: Cell number and viability after 30 days of serum deprivation; type: cell-based, human; settings: 10 nM
Procedure: Cell viability was measured using the Alamar Blue Cell Proliferation Assay (Bio-Rad), according to manufacturer's protocol. Alamar Blue uses resazurin to measure reducing power of living cells. The weakly fluorescent resazurin is reduced to the highly fluorescent resorufin when reduced by cellular metabolism. Briefly, alamar blue reagent (10 ul) was added to the culture medium and incubated for 1 h at 37° C. Fluorescence from resorufin (Ex/Em 530/590 nm) was detected using a microplate reader (SpectraMax iD3, Molecular Devices).
In the second model, ARPE-19 cells were grown in serum-free DMEM in the absence or presence of peptide-conjugated biotin molecules for 30 days. Serum-free media was supplemented with 10 nM of SPN12, SPN15 or SPN16 compounds (all at 10 nM) was replaced every 3 days. Culture medium was replaced every 3 days.

ARPE-19 cells [4] = assay: In vitro scratch assay (scratch area); type: cell-based, human
Source text: as §1, §2

[5] = system: ARPE-19 human retinal pigment epithelial cells; assay: Mitochondrial localization: co-localization with cytochrome c oxidase subunit 4 (COX4); type: cell-based; settings: ARPE-19 cells, 1 uM, 2 hours, serum-free DMEM/F12
Procedure: Cells were fixed with 4% PFA at RT for 10 min and then permeabilized with 0.1% Triton X-100 at RT for 10 min. Cells were blocked with 2% BSA (bovine serum albumin) at RT for 30 min, and then incubated with primary antibody for cytochrome c oxidase subunit 4 (COX4), a major protein complex expressed on the inner mitochondrial membrane. The rabbit polyclonal COX4 antibody (Invitrogen PAS-29992, Waltham, MA) was used at 1:500 dilution in 2% BSA at 4° C. overnight.

[6] = mouse, 2 hours after administration

## N=C(N)NCCC[C@@H](N)C(=O)N[C@@H](Cc1ccc(O)cc1)C(=O)N[C@H](CCCNC(=N)N)C(=O)N[C@@H](Cc1ccccc1)C(=O)N[C@@H](CCCCNC(=O)CCCC[C@@H]1SC[C@@H]2NC(=O)N[C@@H]21)C(N)=O [SPN15, D-Arg-L-Tyr-D-Arg-L-Phe-L-Lys(biotinyl)-NH2] (H-[dR]Y[dR]FK(Biotin)-NH2; N-terminus assumed)
Mouse retina; living mouse, 2 hours
  absorption after ip administration: rapidly absorbed
Mouse retina; [6]
  co-localization of streptavidin staining with COX4 staining in retina, FIG. 26: co-localizes with COX4 staining in the RGC, IPL, INL, and the photoreceptor IS
  distribution of staining within retinal layers, FIG. 26: concentrated in the inner and outer plexiform layers (IPL and OPL)
  staining in retinal pigment epithelium (RPE) cells, FIG. 27: can clearly be seen in the RPE cells
  uptake into retina (Streptavidin Alexa Fluor 594 staining), FIG. 26: clearly taken up in the different layers of the retina
HK-2 cells
  closure of the scratch area compared to control, FIG. 16 and FIG. 17: significantly accelerated the closure of the scratch area
  effectiveness in reducing scratch area compared to free biotin, FIG. 16 and FIG. 17: three times more effective
[1]
  intracellular streptavidin staining (cellular uptake of biotin), microscopic images FIG. 4: intense red staining with a perinuclear distribution
[2]
  mitochondrial potential (TMRM) and filamentous mitochondrial network, FIG. 14: restore mitochondrial potential in all cells
ARPE-19 cells [3]; 30 days of serum deprivation
  cell viability after serum deprivation compared to control, FIG. 9: doubled
ARPE-19 cells [3]; 30 days serum-free
  cell number after prolonged serum deprivation, microscopic images FIG. 8: increased cell number
ARPE-19 cells [4]
  wound healing (scratch closure), FIG. 18: accelerated wound healing
[5]
  co-localization of biotin staining with COX4 staining (inner mitochondrial membrane), FIG. 6: co-localization
